In patent US20260355169A1, “METHODS OF TREATING CANCERS USING ISOQUINOLINE OR 6-AZA-QUINOLINE DERIVATIVES” (Black Diamond Therapeutics, Inc., priority 2022, published 2026):

Columns and labels:
[1] = test system: KRAS G12D patient-derived NSCLC tumor; experiment: Combination with binimetinib in mice with KRAS G12D NSCLC PDX model; type: in vivo, Nu/Nu mice; details: 50 days, oral gavage; monotherapy or combination
Experimental: (§1) Anti-tumor activity of a compound of the present disclosure in combination with binimetinib was investigated in mice with KRAS G12D NSCLC patient-derived xenograft (PDX) model. Nu/Nu mice implanted with KRAS G12D patient-derived NSCLC tumor were randomized to control or treatment group when the overall average tumor mean volume was 172 mm^3. Mice were administered twice daily approximately 12 hours apart with vehicle, twice daily approximately 12 hours apart with binimetinib, and once daily with the compound of the present disclosure, or the combination for 50 days by oral gavage. […] For representative results of the study, see FIG. 2.

[2] = test system: A375-Luc melanoma cells; experiment: Combination with binimetinib in mice with A375-Luc melanoma (BRAF V600E); type: in vivo, BALB/c nude mice; details: 35 days, oral gavage; monotherapy or combination
Experimental: as §1, with “was also” for “was”, “with melanoma cell line with BRAF V600E mutation. BALB/c nude” for “with KRAS G12D NSCLC patient-derived xenograft (PDX) model. Nu/Nu”, “with A375-Luc melanoma cells” for “with KRAS G12D patient-derived NSCLC tumor”, “was 224” for “was 172”, “for 35” for “for 50”, “FIG. 3.” for “FIG. 2.”

[3] = test system: BaF3 BRAF-KIAA1549 fusion cells; experiment: BaF3 BRAF-KIAA1549 fusion cell proliferation assay; type: cell-based; details: Mus musculus, BaF3, 96 h, read-out: IC50, inhibition of cell growth, BaF3-BRAF:KIAA1549 Fusion
Experimental: Retroviral Production: The BRAF-KIAA1549 fusion mutant was subcloned into pMXs-IRES-Blasticidin (RTV-016, Cell Biolabs, San Diego, CA). […]. Briefly, HEK 293T cells were plated in Poly-D-lysine coated 6-well plate (2.5×10^5 cells per well) and incubated overnight. The next day, retroviral plasmids (1 μg of BRAF-KIAA fusion mutant, 0.32 μg of pCMV-Gag-Pol and 0.165 μg pCMV-VSV-G) were mixed in 300 μL of Optimem (31985, Life Technologies). The mixture was incubated at room temperature for 5 minutes and then added to Optimem containing transfection reagent Lipofectamine (11668, Invitrogen) and incubated for 20 minutes. The mixture was then added dropwise to HEK 293T cells. The next day the medium was replaced with fresh culture medium and retrovirus was harvested at 24 hours.
Generation of BRAF-KIAA1549 fusion stable cell line: BaF3 cells were plated in V-bottom 96 well plate (COSTAR #3894) in 80 μL of RPMI/10% FBS and 0.01 ng/mL mouse IL-3, supplemented with 8 μg/mL polybrene (4×10^4 cells/well). Cells were transduced with 20 μL of BRAF-KIAA1549 fusion viral supernatant by centrifuging for 30 minutes at 1000 rpm. Cells were placed in a 37 °C incubator overnight. Next day 100 μL of RPMI/10% FBS and 0.01 ng/mL mouse IL-3 was added. After 24 hours, 100 μL of cells were transferred to a 24 well plate containing 900 μL of RPMI/10% FBS and 15 μg/mL Blasticidin. Contents of the 24 well plate were sampled for cell viability via CellTiterGlo (Promega) over a 2-week period.
Assay for cell proliferation: BaF3 BRAF-KIAA1549 fusion cells were resuspended at 1.5×10^5 c/mL in RPMI containing 10% Heat Inactivated FBS, 1% L-glutamine and dispensed in duplicate ([…]) into 384 well plates. To determine the effect of compound on cell proliferation, BaF3 BRAF-KIAA1549 fusion cells were incubated for 96 hours in the presence of vehicle control (DMSO) or compound at varying concentrations. Inhibition of cell growth was determined by luminescent quantification (Envision by Perkin Elmer) of intracellular ATP content using CellTiterGlo (Promega), according to the protocol provided by the manufacturer. To determine the IC50 values, the vehicle-treated cells were normalized as viable cells and analyzed using the CDD Vault, Collaborative Drug Discovery, Burlingame, CA (the Levenberg-Marquardt algorithm; Levenberg, K, […]; Marquardt, D., 1963).
Table A assigns each compound a code for potency in the BaF3 BRAF-KIAA1549 fusion cell proliferation assay: A, B, C, or D. According to the code, A represents an IC50 value<20 nM; B represents an IC50 value≥20 nM and <100 nM; C represents an IC50 value≥100 nM and <500 nM; and D represents an IC50 value≥500 nM.

| SMILES | IC50 [3] | also measured |
| --- | --- | --- |
| Cn1cnc2c(F)c(Nc3ccc(Br)cc3F)c(C(=O)NOCCO)cc21 [binimetinib] |  | body weight loss [1]: No significant body weight loss; body weight loss [2]: No significant body weight loss |
| CNc1cc2ncc(-c3cc(NC(=O)c4cnc5n4CCCCC5)cnc3C)cc2cn1 [compound 232] | 100 to 500 nM |  |
| CNc1cc2ncc(-c3cc(NC(=O)c4nn(C)c5c4CCCC5)cnc3C)cc2cn1 [compound 233] | 20 to 100 nM |  |
| CNc1cc2ncc(-c3cc(NC(=O)c4csc5c4CCCC5)cnc3C)cc2cn1 [compound 234] | 20 to 100 nM |  |
| CNc1cc2ncc(-c3cc(NC(=O)c4csc5c4CCC(C)C5)cnc3C)cc2cn1 (stereo not shown) [compound 235] | 20 to 100 nM |  |
| CNc1cc2ncc(-c3cc(NC(=O)c4noc5c4C[C@@H](C)CC5)ccc3C)cc2cn1 [compound 236] | 20 to 100 nM |  |
| CNc1cc2ncc(-c3cc(NC(=O)c4noc5c4C[C@H](C)CC5)ccc3C)cc2cn1 [compound 237] | 20 to 100 nM |  |
| CNc1cc2ncc(-c3cc(NC(=O)c4cnc5n4CC(C(F)F)CC5)ccc3C)cc2cn1 (stereo not shown) [compound 238] | 20 to 100 nM |  |
| CNc1cc2ncc(-c3cc(NC(=O)c4cccc5c4OC(C)C5)cnc3C)cc2cn1 (stereo not shown) [compound 239] | > 500 nM |  |
| CNc1cc2ncc(-c3cc(NC(=O)c4cnn(CC(F)(F)F)c4C)cnc3C)cc2cn1 [compound 240] | > 500 nM |  |
| CNc1cc2ncc(-c3cc(NC(=O)c4noc5c4CC(C(C)(C)C)CC5)cnc3C)cc2cn1 (stereo not shown) [compound 241] | 100 to 500 nM |  |
| CNc1cc2ncc(-c3cc(NC(=O)c4cc(C(O)CC(F)(F)F)ccn4)cnc3C)cc2cn1 (stereo not shown) [compound 242] | 20 to 100 nM |  |
| CNc1cc2ncc(-c3cc(NC(=O)c4cnc5n4CC(C(F)(F)F)CC5)cnc3C)cc2cn1 (stereo not shown) [compound 243] | 20 to 100 nM |  |
| CNc1cc2ncc(-c3cc(NC(=O)c4n[nH]c5c4CN(C)CC5)cnc3C)cc2cn1 [compound 244] | > 500 nM |  |
| CNc1cc2ncc(-c3cc(NC(=O)c4noc5c4CCCCC5)cnc3C)cc2cn1 [compound 245] | 20 to 100 nM |  |
| CNc1cc2ncc(-c3cc(NC(=O)c4noc5c4COCC5)cnc3C)cc2cn1 [compound 246] | > 500 nM |  |
| CNc1cc2ncc(-c3cc(NC(=O)c4noc5c4CC(F)(F)CC5)cnc3C)cc2cn1 [compound 247] | 20 to 100 nM |  |
| CNc1cc2ncc(-c3cc(NC(=O)c4cc([C@@H](C)C(C)(F)F)ccn4)cnc3C)cc2cn1 [compound 248] | 20 to 100 nM |  |
| CNc1cc2ncc(-c3cc(NC(=O)c4cc([C@H](O)C(C)(F)F)ccn4)cnc3C)cc2cn1 [compound 249] | 20 to 100 nM |  |
| CNCC(F)(F)c1cccc(C(=O)Nc2cnc(C)c(-c3cnc4cc(NC)ncc4c3)c2)n1 [compound 250] | > 500 nM |  |
| CNc1cc2ncc(-c3cc(NC(=O)c4cnc5n4CC(C(F)F)CC5)cnc3C)cc2cn1 (stereo not shown) [compound 251] | 100 to 500 nM |  |
| CNc1cc2ncc(-c3cc(NC(=O)c4n[nH]c5c4C[C@@H]4C[C@H]54)cnc3C)cc2cn1 [compound 252] | 20 to 100 nM |  |
| CNc1cc2ncc(-c3cc(NC(=O)c4n[nH]c5c4C[C@H]4C[C@@H]54)cnc3C)cc2cn1 [compound 253] | 20 to 100 nM |  |

| SMILES | IC50 [3] | also measured |
| --- | --- | --- |
| CNc1cc2ncc(-c3cc(NC(=O)c4noc5c4CN(C(C)C)CC5)cnc3C)cc2cn1 [compound 254] | 100 to 500 nM |  |
| CNc1cc2ncc(-c3cc(NC(=O)c4cc(C(C)(C)C(N)=O)ccn4)ccc3C)cc2cn1 [compound 255] | 20 to 100 nM |  |
| CNc1cc2ncc(-c3cc(NC(=O)c4nccc(C(C)C)c4Cl)cnc3C)cc2cn1 [compound 256] | 20 to 100 nM |  |
| CNc1cc2ncc(-c3cc(NC(=O)c4noc5c4CC(C)(C)CC5)cnc3C)cc2cn1 [compound 257] | 20 to 100 nM |  |
| CNc1cc2ncc(-c3cc(NC(=O)c4cnc5n4C[C@@H](C)CC5)cnc3C)cc2cn1 [compound 258] | 20 to 100 nM |  |
| CNc1cc2ncc(-c3cc(NC(=O)c4cnc5n4C[C@H](C)CC5)cnc3C)cc2cn1 [compound 259] | 20 to 100 nM |  |
| CCC(OC)c1ccnc(C(=O)Nc2cnc(C)c(-c3cnc4cc(NC)ncc4c3)c2)c1 (stereo not shown) [compound 260] | 20 to 100 nM |  |
| CNc1cc2ncc(-c3cc(NC(=O)c4n[nH]c5c4CC(C)CC5)ccc3C)cc2cn1 (stereo not shown) [compound 261] | < 20 nM |  |
| CNc1cc2ncc(-c3cc(NC(=O)c4n[nH]c5c4CCCC5(C)C)ccc3C)cc2cn1 [compound 262] | 20 to 100 nM |  |
| CNc1cc2ncc(-c3cc(NC(=O)c4c[nH]c5ccc(C)cc45)ccc3C)cc2cn1 [compound 263] | < 20 nM |  |
| CNc1cc2ncc(-c3cc(NC(=O)c4n[nH]c5c4C[C@H](C)O[C@@H]5C)ccc3C)cc2cn1 [compound 264] | 20 to 100 nM |  |
| CNc1cc2ncc(-c3cc(NC(=O)c4cnn5c4CC(C)CC5)ccc3C)cc2cn1 (stereo not shown) [compound 265] | < 20 nM |  |
| CNc1cc2ncc(-c3cc(NC(=O)c4c[nH]c5c4CC(C)CC5)ccc3C)cc2cn1 (stereo not shown) [compound 266] | 20 to 100 nM |  |
| CNc1cc2ncc(-c3cc(NC(=O)N4CC[C@@H](CC(F)(F)F)C4)ccc3C)cc2cn1 [compound 267] | < 20 nM |  |
| CNc1ncc2cc(-c3cc(NC(=O)c4ccnc(C5(F)CC5)c4)ccc3C)cnc2c1Cl [compound 269] | 100 to 500 nM |  |
| CNc1ncc2cc(-c3cc(NC(=O)c4ccnc(C(C)(C)C#N)c4)cnc3C)cnc2c1Cl [compound 270] | > 500 nM |  |
| CNc1ncc2cc(-c3cc(NC(=O)c4ccnc(C5(F)CC5)c4)ccc3C)cnc2c1C#N [compound 271] | 20 to 100 nM |  |
| CNc1cc2c(C#N)cc(-c3cc(NC(=O)c4ccnc(C5(F)CC5)c4)ccc3C)cc2cn1 [compound 272] | 20 to 100 nM |  |
| CNc1cc2c(C#N)cc(-c3cc(NC(=O)c4ccnc(C(F)(F)F)c4)ccc3C)cc2cn1 [compound 273] | 100 to 500 nM |  |
| Cc1ncc(NC(=O)c2cc(C(F)(F)F)ccn2)cc1-c1ccc2c3c(ncc2c1)NC(=O)C3 [compound 274] | < 20 nM |  |
| Cc1ccc(NC(=O)c2cc(C(C)(C)C#N)ccn2)cc1-c1ccc2c3c(ncc2c1)NC(=O)C3 [compound 275] | 20 to 100 nM |  |
| Cc1ccc(NC(=O)c2ccnc(C(C)(C)F)c2)cc1-c1ccc2c3c(ncc2c1)NC(=O)C3 [compound 276] | < 20 nM |  |
